Assay results reported in patent EP1042468B1.
“And” between values parts separate entries of the source, which are not always exact repeats. Equal entries are not always repeated. Where two headings read alike, the source gives them in different places. Values belong to the molecule of their own block, whether it stands above or below them.

Assays:
[1] = molecular target: T1, human α1H containing calcium channels expressed in HEK293 cells (Homo sapiens, UniProt O95180); assay: Whole-cell patch clamp of HEK293 cells transiently expressing the α1H subunit; assay type: cell-based
T1 construct: expressed in transfected cells; host or cells: HEK293 (transient, calcium phosphate; pCMVCD4 co-transfected as marker)
T1 sequence (O95180 whole entry): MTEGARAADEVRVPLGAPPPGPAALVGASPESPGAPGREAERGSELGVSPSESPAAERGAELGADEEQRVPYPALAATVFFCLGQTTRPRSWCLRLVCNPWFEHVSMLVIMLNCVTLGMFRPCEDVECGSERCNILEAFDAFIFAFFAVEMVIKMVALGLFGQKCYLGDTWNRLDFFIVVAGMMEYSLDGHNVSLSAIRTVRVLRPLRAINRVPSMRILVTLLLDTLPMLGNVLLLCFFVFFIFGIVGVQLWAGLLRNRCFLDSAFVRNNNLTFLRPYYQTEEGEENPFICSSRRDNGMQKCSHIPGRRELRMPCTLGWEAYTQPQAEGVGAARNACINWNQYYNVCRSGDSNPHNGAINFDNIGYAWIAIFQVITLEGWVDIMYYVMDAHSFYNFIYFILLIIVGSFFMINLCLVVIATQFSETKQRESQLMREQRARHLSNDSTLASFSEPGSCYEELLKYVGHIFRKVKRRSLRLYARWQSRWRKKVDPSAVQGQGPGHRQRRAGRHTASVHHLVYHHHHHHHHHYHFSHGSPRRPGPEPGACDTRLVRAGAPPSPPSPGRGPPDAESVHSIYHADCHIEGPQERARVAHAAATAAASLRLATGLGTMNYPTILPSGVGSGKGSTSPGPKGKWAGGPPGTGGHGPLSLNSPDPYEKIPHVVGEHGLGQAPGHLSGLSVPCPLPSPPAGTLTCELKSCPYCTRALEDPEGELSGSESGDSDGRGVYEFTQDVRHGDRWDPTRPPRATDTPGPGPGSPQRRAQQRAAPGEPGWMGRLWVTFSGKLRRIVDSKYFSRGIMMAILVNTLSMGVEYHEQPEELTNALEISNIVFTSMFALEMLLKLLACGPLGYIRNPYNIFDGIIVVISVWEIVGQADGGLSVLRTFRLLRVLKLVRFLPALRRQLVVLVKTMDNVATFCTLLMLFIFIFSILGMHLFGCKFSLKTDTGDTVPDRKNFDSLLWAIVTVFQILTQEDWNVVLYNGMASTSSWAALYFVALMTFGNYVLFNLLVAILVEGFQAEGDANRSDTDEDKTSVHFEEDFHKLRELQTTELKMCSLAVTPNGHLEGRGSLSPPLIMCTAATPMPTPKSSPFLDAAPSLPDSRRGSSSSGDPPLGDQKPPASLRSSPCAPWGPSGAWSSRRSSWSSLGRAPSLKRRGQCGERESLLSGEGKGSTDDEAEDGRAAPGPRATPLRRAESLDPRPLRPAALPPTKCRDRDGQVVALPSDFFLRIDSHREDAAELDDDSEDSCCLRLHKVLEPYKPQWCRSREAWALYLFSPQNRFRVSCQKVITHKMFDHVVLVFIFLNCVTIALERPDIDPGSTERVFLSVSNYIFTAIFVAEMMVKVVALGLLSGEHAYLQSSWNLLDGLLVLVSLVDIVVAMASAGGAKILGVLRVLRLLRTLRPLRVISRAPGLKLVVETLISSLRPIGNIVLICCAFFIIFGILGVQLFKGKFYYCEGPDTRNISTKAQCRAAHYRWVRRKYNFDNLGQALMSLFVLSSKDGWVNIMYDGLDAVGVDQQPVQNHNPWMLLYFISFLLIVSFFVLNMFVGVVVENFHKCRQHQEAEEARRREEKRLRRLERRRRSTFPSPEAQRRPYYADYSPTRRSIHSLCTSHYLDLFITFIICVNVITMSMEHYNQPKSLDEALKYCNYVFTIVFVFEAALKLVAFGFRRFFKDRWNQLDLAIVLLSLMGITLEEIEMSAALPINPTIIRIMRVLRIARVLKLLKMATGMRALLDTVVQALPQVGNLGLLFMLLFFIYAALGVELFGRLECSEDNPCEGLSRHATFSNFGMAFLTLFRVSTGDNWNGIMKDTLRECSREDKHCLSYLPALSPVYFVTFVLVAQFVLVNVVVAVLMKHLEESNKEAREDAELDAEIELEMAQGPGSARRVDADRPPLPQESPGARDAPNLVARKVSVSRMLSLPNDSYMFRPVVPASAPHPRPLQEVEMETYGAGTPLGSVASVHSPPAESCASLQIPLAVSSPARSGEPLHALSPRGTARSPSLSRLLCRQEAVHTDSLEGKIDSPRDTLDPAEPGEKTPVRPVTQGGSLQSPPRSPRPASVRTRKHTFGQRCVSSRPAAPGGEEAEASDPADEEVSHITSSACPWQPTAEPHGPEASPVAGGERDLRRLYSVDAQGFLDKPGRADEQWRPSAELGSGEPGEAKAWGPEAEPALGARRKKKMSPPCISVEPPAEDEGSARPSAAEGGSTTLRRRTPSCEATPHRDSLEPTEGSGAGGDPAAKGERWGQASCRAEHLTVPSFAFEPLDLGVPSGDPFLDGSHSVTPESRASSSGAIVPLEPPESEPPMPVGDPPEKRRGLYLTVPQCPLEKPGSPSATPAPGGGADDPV

[2] = molecular target: T2, human α1H channels expressed in Xenopus oöcytes (Homo sapiens, UniProt O95180); assay type: cell-based; settings: for IC50: Ba^2+ currents (15 mM Ba^2+)
T2 construct: Construction of a full-length α1H-1-encoding DNA clone; expressed in transfected cells; host or cells: Xenopus laevis oöcytes injected with in vitro transcripts
T2 sequence (O95180 whole entry): as above

[3] = system: T-type current in neuroblastoma cells; settings: cited from earlier work
[4] = system: T-type current in hippocampal neurons; settings: 300 µM; cited from earlier work
[5] = system: human neuronal calcium channel α2 and β1 subunits; assay: Two-electrode voltage clamp of oöcytes injected with α2 and β1 transcripts; settings: n = 11
[6] = molecular target: human neuronal calcium channel α1D and α2 subunits (Homo sapiens, UniProt Q01668); assay: Two-electrode voltage clamp of oöcytes injected with α1D and α2 transcripts; settings: holding potential of -90 mV
Sequence of human neuronal calcium channel α1D and α2 subunits (Q01668 10-2161 limits assumed): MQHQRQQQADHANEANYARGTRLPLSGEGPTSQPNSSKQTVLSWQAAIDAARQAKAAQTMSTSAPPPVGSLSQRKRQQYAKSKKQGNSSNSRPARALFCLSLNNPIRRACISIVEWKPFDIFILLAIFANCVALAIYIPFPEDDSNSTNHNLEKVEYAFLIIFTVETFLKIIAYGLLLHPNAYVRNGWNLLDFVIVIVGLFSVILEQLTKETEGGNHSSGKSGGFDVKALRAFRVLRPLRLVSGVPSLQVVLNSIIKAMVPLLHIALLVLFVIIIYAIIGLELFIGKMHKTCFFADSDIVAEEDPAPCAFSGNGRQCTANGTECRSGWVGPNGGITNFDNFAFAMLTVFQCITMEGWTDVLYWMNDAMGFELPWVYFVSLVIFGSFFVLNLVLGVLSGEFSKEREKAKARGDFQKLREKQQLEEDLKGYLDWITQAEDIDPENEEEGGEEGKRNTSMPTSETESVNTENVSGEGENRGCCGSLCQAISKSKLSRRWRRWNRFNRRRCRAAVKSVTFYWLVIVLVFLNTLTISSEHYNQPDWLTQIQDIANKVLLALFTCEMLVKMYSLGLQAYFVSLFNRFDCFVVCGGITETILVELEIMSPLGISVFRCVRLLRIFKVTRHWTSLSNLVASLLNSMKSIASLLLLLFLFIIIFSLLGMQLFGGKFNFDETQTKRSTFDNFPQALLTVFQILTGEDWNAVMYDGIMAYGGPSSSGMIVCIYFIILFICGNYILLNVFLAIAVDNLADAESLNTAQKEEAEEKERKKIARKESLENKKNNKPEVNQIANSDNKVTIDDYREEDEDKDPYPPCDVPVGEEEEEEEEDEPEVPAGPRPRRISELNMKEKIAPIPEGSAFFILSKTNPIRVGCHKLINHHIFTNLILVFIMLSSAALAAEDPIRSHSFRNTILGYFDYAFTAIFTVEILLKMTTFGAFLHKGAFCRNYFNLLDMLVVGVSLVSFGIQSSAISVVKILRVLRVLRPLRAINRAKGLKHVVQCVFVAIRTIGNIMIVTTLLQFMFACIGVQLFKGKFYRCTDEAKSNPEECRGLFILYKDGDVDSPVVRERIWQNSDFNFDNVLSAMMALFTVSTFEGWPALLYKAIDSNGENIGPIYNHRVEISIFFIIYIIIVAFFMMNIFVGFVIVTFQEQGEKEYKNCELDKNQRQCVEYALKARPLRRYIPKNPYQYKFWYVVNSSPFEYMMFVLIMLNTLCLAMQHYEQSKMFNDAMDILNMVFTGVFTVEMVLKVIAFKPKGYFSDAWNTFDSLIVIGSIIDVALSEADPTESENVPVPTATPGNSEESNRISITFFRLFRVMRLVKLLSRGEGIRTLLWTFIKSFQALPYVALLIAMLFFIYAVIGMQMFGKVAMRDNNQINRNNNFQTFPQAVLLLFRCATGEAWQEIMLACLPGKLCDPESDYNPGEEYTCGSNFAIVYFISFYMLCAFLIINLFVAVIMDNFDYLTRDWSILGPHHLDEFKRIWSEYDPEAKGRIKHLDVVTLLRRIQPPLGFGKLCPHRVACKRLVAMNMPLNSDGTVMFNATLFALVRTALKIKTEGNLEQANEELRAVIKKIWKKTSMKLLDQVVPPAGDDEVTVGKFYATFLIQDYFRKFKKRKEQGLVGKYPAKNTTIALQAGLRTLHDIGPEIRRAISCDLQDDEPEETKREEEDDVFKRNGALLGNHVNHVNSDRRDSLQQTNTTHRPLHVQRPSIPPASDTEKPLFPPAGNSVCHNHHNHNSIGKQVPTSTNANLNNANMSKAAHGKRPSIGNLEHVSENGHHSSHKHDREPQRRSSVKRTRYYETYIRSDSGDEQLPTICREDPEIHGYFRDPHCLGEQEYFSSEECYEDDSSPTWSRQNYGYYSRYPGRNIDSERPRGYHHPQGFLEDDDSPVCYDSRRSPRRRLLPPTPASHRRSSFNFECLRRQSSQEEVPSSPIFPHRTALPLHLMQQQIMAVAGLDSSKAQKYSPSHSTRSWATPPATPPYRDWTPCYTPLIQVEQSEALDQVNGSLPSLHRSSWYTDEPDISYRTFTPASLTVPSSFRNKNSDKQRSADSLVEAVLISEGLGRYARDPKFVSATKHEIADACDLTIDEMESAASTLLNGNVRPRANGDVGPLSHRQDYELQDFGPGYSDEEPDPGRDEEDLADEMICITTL

[7] = Xenopus oöcytes, concentration-inhibition curve of Ba^2+ currents

inhibition at 1 µM ([1]; HEK293, read-out: % Inhibition of Control Response, 1 µM, HEK293 cells, 15 mM Ba^2+, mean ± SD(n)): 0.4 ± 0.8%
effect on α1H channels (in words) ([1]; concentration of 1 µM): little effect
effect on α1H-containing channels (in words) ([1]; concentration of 10 µM): marked inhibition
SMILES: COC(=O)C1=C(C)NC(C)=C([N+](=O)[O-])[C@H]1c1ccccc1C(F)(F)F [(-)BayK-8644]

SMILES: N=C(N)NC(=O)c1nc(Cl)c(N)nc1N [Amiloride, amiloride]
effect on α1H-mediated currents (in words) [1]: inhibited
sensitivity of α1H-1-containing calcium channels lower when expressed in HEK293 cells than when expressed in Xenopus oöcytes [1]: about 10 fold
IC50 ([1]; HEK293 cells, charge carrier 15 mM Ba^2+, sigmoidal curve fitting): 167 µM
nH [2]: 0.62
IC50 [3]: ~50 µM
reduction of the T-type current [4]: 40%

response of barium currents (in words) [6]: little or no response
SMILES: COC(=O)C1=C(C)NC(C)=C([N+](=O)[O-])C1c1ccccc1C(F)(F)F (centres unmarked) [Bay K 8644]
sensitivity of inward barium currents (in words) [5]: insensitive

SMILES: [Cd+2] [Cd^2+]
IC50 [1]: 104 µM
sensitivity of α1H-1-containing calcium channels lower when expressed in HEK293 cells than when expressed in Xenopus oöcytes [1]: about 10 fold
IC50 ([2]; Xenopus oöcytes): 8.3 µM and 10.3 µM

inhibition at 300 µM ([1]; HEK293, 300 µM, HEK293 cells, 15 mM Ba^2+, mean ± SD(n), read-out: % Inhibition of Control Response): 7.2 ± 1.8%
effect on α1H-mediated currents (in words) ([1]; no concentration stated): no effect
SMILES: CCC1(C)CC(=O)NC1=O (centres unmarked) [Ethosuximide, ethosuximide]

inhibition at 1 µM ([1]; 1 µM, HEK293 cells, 15 mM Ba^2+, mean ± SD(n), read-out: % Inhibition of Control Response): 51 ± 10%
effect on α1H-mediated currents (in words) ([1]; no concentration stated): inhibited
nH [2, 7]: 0.71
SMILES: COCC(=O)O[C@]1(CCN(C)CCCc2nc3ccccc3[nH]2)CCc2cc(F)ccc2[C@@H]1C(C)C [Mibefradil, (IS,2S)-2-[2-[[3-(1H-benzimidazol-2-yl)propyl]methyl-amino]ethyl]-6-fluoro-1-isopropyl-1,2,3,4-tetrahydronaphthalen-2-yl methoxyacetate]

SMILES: [Ni+2] [Ni^2+]
IC50 [1]: 6.6 µM
effect on α1H-mediated currents (in words) [1]: inhibited
α1H-mediated currents more sensitive to Ni^2+ than to Cd^2+ [1]: 16 fold
reversibility of antagonism ([2]; Xenopus oöcytes): largely reversible
IC50 ([2]; Xenopus oöcytes): 6.3 µM
nH [2, 7]: 0.84

inhibition at 10 µM ([1]; HEK293, 10 µM, HEK293 cells, 15 mM Ba^2+, mean ± SD(n), read-out: % Inhibition of Control Response): 43.7 ± 4.1%
SMILES: COCCOC(=O)C1=C(C)NC(C)=C(C(=O)OC(C)C)C1c1cccc([N+](=O)[O-])c1 (centres unmarked) [Nimodipine, nimodipine]
